Assay results reported in paper PMC5575254, “An allosteric ligand-binding site in the extracellular cap of K2P channels” (Nature Communications, 2017).

Assays:
[1] = target: T1, TREK-1 channel (Homo sapiens, UniProt O95069); assay: Whole-cell voltage clamp of CHO cells transiently transfected with TREK-1; format: cell-based
T1 construct: expressed in transfected cells; host or cells: CHO cells, transient transfection
T1 sequence (O95069 1-411 isoform O95069-2): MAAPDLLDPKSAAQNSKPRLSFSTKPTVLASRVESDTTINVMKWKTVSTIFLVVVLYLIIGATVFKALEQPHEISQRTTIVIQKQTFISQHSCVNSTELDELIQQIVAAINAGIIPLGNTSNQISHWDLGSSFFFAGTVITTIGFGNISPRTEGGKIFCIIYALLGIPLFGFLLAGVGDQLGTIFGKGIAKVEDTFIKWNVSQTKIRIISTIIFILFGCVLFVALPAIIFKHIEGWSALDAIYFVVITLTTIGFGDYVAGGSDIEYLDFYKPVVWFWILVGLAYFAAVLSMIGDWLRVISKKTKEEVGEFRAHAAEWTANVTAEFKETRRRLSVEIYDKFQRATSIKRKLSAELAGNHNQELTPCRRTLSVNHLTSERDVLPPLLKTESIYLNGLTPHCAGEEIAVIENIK
Excerpt: (§1) cDNA of the human TREK-1, TREK-2 and TRAAK channels were subcloned into the pEGFPN1 expression vector (Invitrogen), respectively. Mutations were introduced into TREK-1 or TRAAK by PCR using the QuickChange XL sitedirected mutagenesis kit (Agilent Technologies) and were subsequently confirmed by DNA sequencing.
(§2) Chinese hamster ovary (CHO) cells were provided by the Cell Bank of Chinese Academy of Sciences (Shanghai, China). CHO cells were maintained in DMEM/F12 (Gibco) supplemented with 10% fetal bovine serum (Gibco) and 100 μg ml^−1 penicillin-streptomycin (Cellgro) in a humidified incubator at 37 °C (5% CO2). For electrophysiology experiments, cells plated in 35 mm tissue culture dishes (Corning Incorporated) were transiently transfected with the plasmids using PolyJet™ reagent (SignaGen) according to the manufacturer’s instructions. Primers used in this study are listed in Supplementary Table 4.
(§3) All electrophysiological recordings were obtained using patch-clamp recordings in two different configurations: (1) whole cell for macroscopic current dose–response curves; and (2) outside-out and inside-out for macroscopic currents recordings.
All patch-clamp recordings were conducted 36–96 h after transfection with an Axopatch-200B amplifier (Molecular Devices) at room temperature (23–25 °C). The microelectrodes fashioned from 1.5 mm thin-walled borosilicate glass with filament were pulled from Flaming/Brown type micropipette puller (P-97; SUTTER INSTRUMENT) with the resistances of 3–7 MΩ (whole cell) or 7–15 MΩ (outside-out) when filled with a solution containing (in mM): 140 KCl, 2 MgCl2, 10 EGTA, 1 CaCl2, 10 HEPES (pH 7.3, adjusted with KOH). External solution contained (in mM): 150 NaCl, 5 KCl, 0.5 CaCl2, 1.2 MgCl2, 10 HEPES (pH 7.3, adjusted with NaOH). The current signals were filtered at 1 kHz and digitized at a 10 kHz sampling frequency by using DigiData 1440 A.
Data of whole-cell voltage clamp experiments were fitted using doseResp function. The half inhibition concentrations were derived from fits of the dose–response curves to the function:1 I/I0=A1+A2-A1/1+10^logx0-xP, where I 0 and I are current amplitudes before and after application of inhibitors; A 1 and A 2 are constants between 0 and 1; x is the concentration of inhibitor; x o is the concentration when 50% inhibition was reached (IC50), P is the Hill constant.

[2] = test system: mutant TRAAK channels; assay: Whole-cell voltage clamp of mutant TRAAK channels; format: cell-based, human; settings: A35Q, E38T and V42Q mutants
Excerpt: as §1, §2, §3
(§4) All patch-clamp recordings were conducted 36–96 h after transfection with an Axopatch-200B amplifier (Molecular Devices) at room temperature (23–25 °C). […]

[3] = test system: T2, mutant TRAAK channels; assay: Whole-cell voltage clamp of mutant TRAAK channels; format: cell-based, human; settings: 100 μM, L39W mutant
T2 construct: expressed in transfected cells; host or cells: CHO cells, transient transfection
Excerpt: as §1, §2, §3, §4

[4] = test system: mice; assay: Forced swimming test; format: in vivo, Male C57BL/6 mice; settings: chronic i.p. administration 10 days; TKDC 0.5, 1, 5 mg kg-1; fluoxetine 10 mg kg-1; vs vehicle
Method: (§5) Male C57BL/6 mice, aged 8 weeks (weighing 18–20 g) were used for acute and chronic drug administration and behavioral tests. The mice were housed four per cage under a 12-h light–dark cycle. Mice were raised under stable conditions with food and water ad libitum. All animal studies and experimental procedures were approved by the Animal Care Committees of the Shanghai Institute of Materia Medica, Chinese Academy of Sciences, and experiments were carried out in accordance with EU Directive 2010/63/EU on the protection of animals used for scientific purposes. […] The mice were removed to a sound-attenuating testing room 3–4 h before testing. The behavioral tests were carried out 30 min and 24 h after acute and chronic drugs administration, respectively.
The mice were performed under normal light. The apparatus was a transparent Plexiglas cylinder with 30 cm height × 10 cm diameter and the water temperature at 23–25 °C were set to prevent mice from touching the bottom with their limbs. Mice were allowed to swim for 8 min, and their activity was videotaped. There was an extra 15-min swimming in the previous day. The duration of immobility defined as floating or remaining motionless was assessed. To avoid extremely active at the beginning of swimming, the first 2 min of swimming was also excluded as the tail suspension test. […]

[5] = test system: mice; assay: Acute administration behavioral tests; format: in vivo, Male C57BL/6 mice; settings: single i.p. injection, tests 30 min after administration
Method: as §5, with “The behavioral tests were carried out 30 min and 24 h after acute and chronic drugs administration, respectively.” left out
The apparatus was made of opaque Plexiglas (50 cm × 50 cm) and placed in a room with sound proof. […] The mice were randomly placed into the center of the sheet following 30 min drugs administration and their behaviors in the open field arena were recorded for 10 min using the camera. […] Locomotor activity and exploratory behavior were measured in the open field test and each animal was placed individually at the center for a 10 min session. The total distance moved and the number of rearing was measured in this experiment. […]
The mice were performed under normal light. […] The duration of immobility defined as floating or remaining motionless was assessed. […]

effect on TREK-1 current ([1]; perfusion with 10 μM): pronounced decreases in current
IC50 ([1]; whole-cell, CHO cells, WT TREK-1, mean ± s.e.m, read-out: half-maximal inhibition concentration (IC50), TREK-1): 4.9 ± 0.6 µM
SMILES: CS(=O)(=O)N(CC(=O)N1CCc2ccccc2C1)c1ccc(Cl)cc1 [TKDC, N-(4-cholorphenyl)-N-(2-(3,4-dihydrosioquinolin-2(1H)-yl)-2-oxoethyl)methanesulfonamide]
TKDC-induced inhibition of mutant TRAAK versus WT [2]: enhanced inhibition
inhibitory effect on L39W TRAAK mutant versus wild type [3]: weaker than the TKDC-induced
immobility in the forced swimming test [4]: decrease in immobility
antidepressant-like effect in the acute treatment [5]: fast antidepressant-like effect
